Data on 16 molecules can be found in patent US8372866B2, “2-aryl and 2-heteroaryl 4H-1-benzopyran-4-one-6-amidino derivatives, new pharmacological agents for the treatment of arthritis, cancer and related pain” (Rottapharm S.p.A., priority 2008, dated 2013).

The structures appear in SMILES notation. Structures can show the parent of a compound that is named as a salt.

Assay [1] addresses T1, recombinant human aggrecanase 2 (ADAMTS-5) (Homo sapiens, UniProt Q9UNA0).
T1 construct: ADAMTS-5 aminoacids S262-G625 with C-terminal tag; purchased Invitek GmbH, Berlin
T1 sequence (Q9UNA0 262-625): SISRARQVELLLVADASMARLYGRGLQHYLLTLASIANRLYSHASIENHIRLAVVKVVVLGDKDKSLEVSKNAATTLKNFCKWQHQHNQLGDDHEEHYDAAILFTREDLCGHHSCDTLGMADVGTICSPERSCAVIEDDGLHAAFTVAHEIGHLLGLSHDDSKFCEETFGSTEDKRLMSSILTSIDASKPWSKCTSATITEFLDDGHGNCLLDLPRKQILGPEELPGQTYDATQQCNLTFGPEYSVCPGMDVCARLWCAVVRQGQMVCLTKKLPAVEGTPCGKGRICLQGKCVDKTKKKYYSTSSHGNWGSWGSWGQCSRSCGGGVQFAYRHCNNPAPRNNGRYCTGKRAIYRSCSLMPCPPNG
The assay is described as follows: InviLISA Aggrecanase activity assay, aggrecanase 2. In kind it is biochemical. The conditions noted are these: for inhibition at 10 µM: inhibitors tested at 10 μM final concentration. As for the experimental part: (§1) The InviLISA Aggrecanase activity assay (Invitek GmbH, Berlin) was used to screen and characterise aggrecanase inhibitors. The assay was carried out in two steps, according to Will et al. (Will H, Dettloff M, Bendzko P, Svenshnikov P, A Quantitative Assay for aggrecanase Activity; 2005, Journal of Biomolecular Techniques, 16 (4), 459-472). A recombinant fragment of human aggrecan interglobular domain (aggrecan-IGD; T331-G458) is first digested with aggrecanase. Proteolytic cleavage of the substrate releases an aggrecan peptide with the N-terminal sequence ARGSVIL (ARGSVIL-peptide), that was then quantified with two monoclonal anti-peptide antibodies (ELISA module). For precise calculation of product, ARGSVIL-peptide standard concentrations were run in parallel.
(§2) 1) Proteolysis of aggrecan-IGD by aggrecanase. Aggrecan-IGD was incubated with standard recombinant human aggrecanase 1 (ADAMTS-4 aminoacids F213-A579 with C-terminal tag) or standard recombinant human aggrecanase 2 (ADAMTS-5 aminoacids S262-G625 with C-terminal tag) in the absence (total enzymatic activity) or presence (modulated enzymatic activity) of inhibitors to be tested. Enzymes were pre-incubated with the inhibitors or the appropriate concentration of diluent as control (DMSO 0.25% final concentration in proteolysis), at 4° C. for 30 min prior to assaying their activity. Five microliters of mix enzyme-inhibitor were added to the substrate (0.1 μM final concentration) in a total volume of 100 μL and incubated for 15 minutes at 37° C. The reaction was terminated with EDTA-containing buffer. The inhibitors were tested at 10 μM final concentration and compounds achieving ≧50% inhibitory effect were evaluated for IC50 calculation, in a range generally extended from 0.1 to 10 μM final concentration.
(§3) 2) Aggrecan peptide ELISA. ARGSVIL-peptide standard, proteolytic digestion of Aggrecan-IGD with standard aggrecanases and test samples were incubated in microtiter wells pre-coated with anti-ARGSVIL-neoepitope antibody. ARGSVIL-peptide is bound to the coated antibody, while other components are removed by washing and aspiration. The bound ARGSVIL-peptide was detected with a second peroxidase-labelled antibody. Any excess of the conjugate was removed by washing and aspiration. The amount of peroxidase bound to different wells was determined in reactions with peroxidase substrate TMB. The reactions are stopped by addition of sulphuric acid solution and absorbance is read at 450 nm in a microtiter plate spectrophotometer.

Assay [2] deals with T2, recombinant human aggrecanase 1 (ADAMTS-4) (Homo sapiens, UniProt O75173).
T2 construct: ADAMTS-4 aminoacids F213-A579 with C-terminal tag; purchased Invitek GmbH, Berlin
T2 sequence (O75173 213-579): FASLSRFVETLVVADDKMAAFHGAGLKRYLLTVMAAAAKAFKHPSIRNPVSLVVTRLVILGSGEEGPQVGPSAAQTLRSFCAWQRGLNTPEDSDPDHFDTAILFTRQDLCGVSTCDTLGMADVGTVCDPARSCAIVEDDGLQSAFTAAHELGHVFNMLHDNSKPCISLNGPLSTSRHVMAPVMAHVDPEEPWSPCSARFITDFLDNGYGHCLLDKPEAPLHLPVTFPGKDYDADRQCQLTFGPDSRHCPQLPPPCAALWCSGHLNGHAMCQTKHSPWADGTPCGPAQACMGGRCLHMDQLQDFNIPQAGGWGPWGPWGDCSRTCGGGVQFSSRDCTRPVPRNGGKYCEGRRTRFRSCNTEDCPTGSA
The assay is described as follows: InviLISA Aggrecanase activity assay, aggrecanase 1. It is filed as biochemical. The conditions noted are these: for inhibition at 10 µM: inhibitors tested at 10 μM final concentration. The protocol: as §1, §2, §3

Assay [3] has as its system mechanical hyperalgesia associated with STZ-induced diabetes. The experiment in a line: STZ-induced diabetes mechanical hyperalgesia, model of neuropathic pain (Randall-Selitto). In kind it is in vivo, rat. The protocol:
Painful diabetic neuropathy is one of the most common complications of insulin-dependent diabetes in man; in particular, diabetes can be associated with neuropathic pain which fails to be treated by classical analgesics. Streptozotocin (STZ)-induced diabetes in the rat has been increasingly used as a model of painful diabetic neuropathy to assess the efficacies of potential analgesic agents (C. Courteix, Pain 1993, 53, 81-8). A representative compound of the invention was tested for efficacy in reducing mechanical hyperalgesia associated with STZ-induced diabetes in the rat, according to the experimental model as described by the literature. Diabetes was produced with the injection of a single dose (75 mg/Kg i.p.) of STZ. In the following four weeks after the induction of diabetes the clinical symptoms (weight, body and skin temperature, motility and hyperglycemia) progressively developed by the animals, are strictly monitored.
After four weeks, the scores obtained in diabetic rats to various pain stimuli (in particular mechanical stimuli) were greater than those in normal rats, indicating hyperalgesia. The hyperalgesia induced by diabetes was evaluated using the Randall-Selitto method as above described, and quantitated using the analgesimeter. Also in this case, the difference in the mechanical pain threshold between the basal value (generally 230-250 g) and the one tolerated by the animals treated with the drug, is defined as mechanical hyperalgesia. The compound of the invention was administered i.p. (solution, Tween 80, 10% in saline) at different doses, and mechanical hyperalgesia was measured at the reported time, as maximum percent effect (MPE) which represents the difference (%) in pain threshold between the animals treated with the drug and the controls that received only the vehicle, compared with the weight borne by naïf non-diabetic controls. A 100% protection means that the diabetic animals treated with the compound can tolerate the same stimulus (weight) as the naïf non-diabetic animals. MPE higher than 100% means that the diabetic animal treated with the compound can tolerate stimuli (weight) higher than the control non-diabetic animals (hypoalgesia).
In Table 4, the effect of a representative compound of formula (I), in the above described model of neuropathic pain, is compared with some known pharmacological standards used for the clinical treatment of this pathology. In particular, from the MPE data at 0.5 hrs, the doses yielding a protection of 50% (ED50) and 100% (ED100) have been calculated.

For assay [4], the system named is CFA-induced prolonged inflammation. The assay is described as follows: CFA model of chronic inflammatory pain (Randall-Selitto). It is filed as in vivo, rat.
[5] abbreviates: 30 mg/Kg IP, NE = not effective.
Setting [6] is: 100 mg/Kg IP, NE = not effective.
[7] abbreviates: 300 mg/Kg IP, NE = not effective.
[8] abbreviates: 10 mg/Kg IP, NE = not effective.

The term IC50 denotes the concentration at which inhibition is half-maximal. Usually inhibition stands for the share of the control response that was lost under treatment. Consider `COCCC(=N)Nc1ccc2oc(-c3ccc4c(c3)OCO4)c(O)c(=O)c2c1` [Example 19, 2-(benzo[1,3]dioxol-5-yl)-3-hydroxy-6-[(1-iminopropyl-3-methoxy)amino]-4H-1-benzopyran-4-one hydrochloride], for which the IC50 in assay [1] amounted to 8 µM. Moreover, the inhibition at 10 µM in assay [2] stood at 0%.
For `N=C(CC1CC1)Nc1ccc2oc(-c3ccc4c(c3)OCO4)c(O)c(=O)c2c1` [Example 18], in that order: 4.3 µM and 0%.
On to `COCCC(=N)Nc1ccc2oc(-c3ccc(-n4ccnc4)cc3)c(O)c(=O)c2c1` [Example 7], for which, in assay [1], the IC50 amounted to 2.4 µM. Moreover, the inhibition at 10 µM in assay [2] amounted to 31%.
For `COc1ccc(C(=N)Nc2ccc3oc(-c4ccc(OC)cc4)c(O)c(=O)c3c2)cc1` [Example 14, N-[2-(4-methoxyphenyl)-3-hydroxy-4H-1-benzopyran-4-one-6-yl]-4-methoxybenzene carboxiimidamide hydrochloride], in that order: 10 µM and 0%.
For the molecule `NCC1(CC(=O)O)CCCCC1` [Gabapentin], the “MPE 0.5 hrs” value in assay [3] (setting [5]) is 39%; in assay [3] (setting [6]), 55%; in assay [3] (setting [7]), 47%. Moreover, the results for the “MPE 1.5 hrs” value in assay [3] (setting [5]), in assay [3] (setting [6]) and in assay [3] (setting [7]) were 41%, 38% and 36%, respectively.
Consider `N=C(CC1CC1)Nc1ccc2oc(-c3ccc(O)cc3)c(O)c(=O)c2c1` [Example 11, 2-(4-hydroxyphenyl-3-hydroxy-6-[(1-iminoethyl-2-cyclopropyl)amino]-4H-1-benzopyran-4-one hydrochloride], for which the inhibition at 10 µM in assay [1] amounted to 40%; in assay [2], 30%.
On to `CC(=N)Nc1ccc2oc(-c3ccc(O)c(O)c3)c(O)c(=O)c2c1` [Example 10, 2-(3,4-dihydroxyphenyl)-3-hydroxy-6-[(1-iminoethyl)amino]-4H-1-benzopyran-4-one hydrochloride], for which the IC50 in assay [1] is 3.5 µM; in assay [2], 0.61 µM.
Broadly, the ED50 is the dose that gives a 50% effect, or the effect in half of the subjects. With `CN(C)CCC=C1c2ccccc2CCc2ccccc21` [Amitriptyline], in assay [3] (3 mg/Kg IP, NE = not effective), the “MPE 0.5 hrs” value was 44% and the “MPE 1.5 hrs” value came out at 40%. Further, in assay [3] (setting [8]), the “MPE 0.5 hrs” value is given as 68% and the “MPE 1.5 hrs” value is reported as 77%. Besides, in assay [3] (setting [5]), the “MPE 0.5 hrs” value is 65%, the “MPE 1.5 hrs” value is listed as 69% and the “MPE 3 hrs” value was 23%. Besides, in assay [3] (Rattus norvegicus, IP, calculated from the MPE data at 0.5 hrs, NC = not calculable, read-out: ED50 0.5 hrs), the ED50 is 3.76 mg/kg.
Consider `CC(=N)Nc1ccc2oc(-c3ccc4c(c3)OCO4)c(O)c(=O)c2c1` [Example 16, 2-(benzo[1,3]dioxol-5-yl)-3-hydroxy-6-[(1-iminoethyl)amino]-4H-1-benzopyran-4-one hydrochloride], for which the IC50 in assay [1] was determined as 5 µM. Moreover, the inhibition at 10 µM in assay [2] came to 32%.
Regarding `COc1ccc(-c2oc3ccc(NC(C)=N)cc3c(=O)c2O)cc1` [Example 12, 2-(4-methoxyphenyl)-3-hydroxy-6-[(1-iminoethyl)amino]-4H-1-benzopyran-4-one hydrochloride monohydrate], the figures for the IC50 in assay [1] and in assay [2] were 1.12 µM and 2.7 µM, respectively.
For `N=C(CC1CC1)Nc1ccc2oc(-c3ccc(-n4ccnc4)cc3)c(O)c(=O)c2c1` [Example 6, 2-[(4-imidazol-1-yl)-phenyl]-3-hydroxy-6-[(1-iminoethyl-2-cyclopropyl)amino]-4H-1-benzopyran-4-one dihydrochloride monohydrate], in that order: 0.2 µM and 1.61 µM.
Consider `CC(=N)Nc1ccc2oc(-c3ccc(S(C)(=O)=O)cc3)c(O)c(=O)c2c1` [Example 9, 2-(4-methansulfonylphenyl)-3-hydroxy-6-[(1-iminoethyl)amino]-4H-1-benzopyran-4-one hydrochloride], for which the IC50 in assay [1] is 11.5 µM. Further, the inhibition at 10 µM in assay [2] was determined as 20%.
As for `CC(=N)Nc1ccc2oc(-c3cccc(-n4ccnc4)c3)c(O)c(=O)c2c1` [Example 8, 2-[(3-(imidazol-1-yl)-phenyl]-3-hydroxy-6-[(1-iminoethyl)amino]-4H-1-benzopyran-4-one dihydrochloride], the 50% inhibitory concentration (IC50) in assay [1] was 10 µM.
On to `CN1C(C(=O)Nc2ccccn2)=C(O)c2ccccc2S1(=O)=O` [Piroxicam, reference compound], for which, in assay [4] (3 mg/Kg IP, NE = not effective), the “MPE 0.5 hrs” value was determined as 25% and the “MPE 1.5 hrs” value amounted to 40%. Also, in assay [4] (setting [8]), the “MPE 0.5 hrs” value stood at 46%, the “MPE 1.5 hrs” value is recorded as 73% and the “MPE 3 hrs” value was 62%. For the same molecule, in assay [4] (setting [5]), the “MPE 0.5 hrs” value was 102%, the “MPE 1.5 hrs” value came out at 111%, the “MPE 3 hrs” value is reported as 54% and the “MPE 6 hrs” value is on record as 24%. In assay [4] (setting [5]), the “MPE 24 hrs” value is listed as 38%. Further, the “ED100 0.5 hrs” value in assay [4] (IP, calculated from the MPE data at 0.5 hrs) was 34.33 mg/kg. In addition, the ED50 in assay [4] (Rattus norvegicus, IP, calculated from the MPE data at 0.5 hrs, read-out: ED50 0.5 hrs) is 7.65 mg/kg.
As for `CC(=N)Nc1ccc2oc(-c3ccc(OCc4ccccc4)cc3)c(O)c(=O)c2c1` [Example 22, 2-[(4-benzyloxy-phenyl]-3-hydroxy-6-[(1-iminoethyl)amino]-4H-1-benzopyran-4-one hydrochloride], in assay [1], the inhibition at 10 µM was determined as 34%.
Still for that read-out and setting: in the case of `CC(=N)Nc1ccc2oc(-c3ccc(O)nc3)c(O)c(=O)c2c1` [Example 21, 2-(6-hydroxypyridin-3-yl)-3-hydroxy-6-[(1-iminoethyl)amino]-4H-1-benzopyran-4-one hydrochloride] it was 20%.
